In ChEMBL document CHEMBL4145459, “Synthesis of (3S,4S,5S)-trihydroxylpiperidine derivatives as enzyme stabilizers to improve therapeutic enzyme activity in Fabry patient cell lines” (Eur J Med Chem, 2018):
Activity calls are given as the source filed them. The rule behind the calls is not given here.

How the values were obtained:
[1] = target: T1, Alpha-galactosidase A (Homo sapiens) (UniProt P06280); test: Inhibition of human recombinant alpha-galactosidase A at 100 uM using 4-MU-alpha-d-galactopyranoside as substrate by fluorescence assay relative to control
T1 sequence (whole entry): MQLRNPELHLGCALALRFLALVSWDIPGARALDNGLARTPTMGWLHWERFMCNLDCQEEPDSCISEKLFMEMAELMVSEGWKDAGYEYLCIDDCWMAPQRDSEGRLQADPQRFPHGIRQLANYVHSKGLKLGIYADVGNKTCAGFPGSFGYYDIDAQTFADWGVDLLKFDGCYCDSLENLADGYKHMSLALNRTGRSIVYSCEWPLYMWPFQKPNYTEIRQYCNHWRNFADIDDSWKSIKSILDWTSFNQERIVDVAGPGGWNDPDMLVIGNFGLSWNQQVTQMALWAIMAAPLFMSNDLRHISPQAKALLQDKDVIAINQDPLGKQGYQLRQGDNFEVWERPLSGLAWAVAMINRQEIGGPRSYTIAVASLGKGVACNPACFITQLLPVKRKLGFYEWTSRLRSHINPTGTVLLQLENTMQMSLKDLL

[2] = target: T2, Alpha-glucosidase (Geobacillus stearothermophilus) (UniProt P94451); test: Inhibition of Bacillus stearothermophilus alpha-glucosidase at 100 uM using 4-MU-glycopyranoside as substrate by spectrophotometric analysis
T2 sequence (whole entry): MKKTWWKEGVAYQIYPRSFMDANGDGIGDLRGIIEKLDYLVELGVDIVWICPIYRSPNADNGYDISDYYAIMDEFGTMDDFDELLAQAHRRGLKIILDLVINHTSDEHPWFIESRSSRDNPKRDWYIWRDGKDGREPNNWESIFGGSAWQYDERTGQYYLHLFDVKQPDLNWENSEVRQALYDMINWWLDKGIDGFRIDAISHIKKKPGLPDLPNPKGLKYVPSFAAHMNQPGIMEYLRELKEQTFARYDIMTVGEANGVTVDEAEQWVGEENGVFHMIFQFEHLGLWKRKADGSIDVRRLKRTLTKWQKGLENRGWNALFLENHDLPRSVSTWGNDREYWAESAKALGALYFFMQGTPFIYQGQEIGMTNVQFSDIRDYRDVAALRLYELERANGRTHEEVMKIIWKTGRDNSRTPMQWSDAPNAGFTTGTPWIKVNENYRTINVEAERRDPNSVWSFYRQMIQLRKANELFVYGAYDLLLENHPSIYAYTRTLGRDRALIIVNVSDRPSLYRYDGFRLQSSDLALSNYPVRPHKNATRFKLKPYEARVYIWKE

[3] = target: Lysosomal alpha-glucosidase (Homo sapiens) (UniProt P10253); test: Inhibition of human recombinant acid alpha-glucosidase at 100 uM using 4-MU-glycopyranoside as substrate by spectrophotometric analysis
[4] = target: T3, Lysosomal acid glucosylceramidase (Homo sapiens) (UniProt P04062); test: Inhibition of human recombinant acid beta-glucosidase at 100 uM using 4-MU-glycopyranoside as substrate by spectrophotometric analysis
T3 sequence (whole entry): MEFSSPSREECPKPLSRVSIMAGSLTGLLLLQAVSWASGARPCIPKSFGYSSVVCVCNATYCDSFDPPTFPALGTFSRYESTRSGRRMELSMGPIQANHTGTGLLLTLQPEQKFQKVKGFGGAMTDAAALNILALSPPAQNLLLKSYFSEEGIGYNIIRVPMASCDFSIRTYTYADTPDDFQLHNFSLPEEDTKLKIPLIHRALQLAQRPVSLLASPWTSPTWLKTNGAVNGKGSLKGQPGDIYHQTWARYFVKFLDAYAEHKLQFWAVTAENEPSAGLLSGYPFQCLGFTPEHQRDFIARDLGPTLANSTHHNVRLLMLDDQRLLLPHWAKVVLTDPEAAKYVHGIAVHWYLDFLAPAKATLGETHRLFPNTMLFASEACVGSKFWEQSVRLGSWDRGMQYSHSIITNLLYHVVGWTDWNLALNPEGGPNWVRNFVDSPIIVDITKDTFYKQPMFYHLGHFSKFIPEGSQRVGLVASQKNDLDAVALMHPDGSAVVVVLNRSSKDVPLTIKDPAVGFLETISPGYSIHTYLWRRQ

[5] = target: Alpha-galactosidase (Coffea arabica) (UniProt Q42656); test: Inhibition of green coffee beans alpha-galactosidase at 100 uM using 4-MU-glycopyranoside as substrate by spectrophotometric analysis relative to control
Alpha-galactosidase (Coffea arabica), sequence (Q42656 16-378 limits assumed): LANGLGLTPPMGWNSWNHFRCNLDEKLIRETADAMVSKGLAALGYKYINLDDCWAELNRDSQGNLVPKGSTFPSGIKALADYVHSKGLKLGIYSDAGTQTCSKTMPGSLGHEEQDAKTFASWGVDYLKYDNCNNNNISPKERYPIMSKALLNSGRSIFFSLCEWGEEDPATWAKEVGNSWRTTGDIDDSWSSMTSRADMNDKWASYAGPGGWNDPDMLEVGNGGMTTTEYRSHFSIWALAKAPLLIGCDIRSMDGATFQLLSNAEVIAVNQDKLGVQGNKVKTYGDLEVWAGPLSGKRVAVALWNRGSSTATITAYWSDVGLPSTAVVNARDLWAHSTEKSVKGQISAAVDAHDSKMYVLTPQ

[6] = target: T4, Beta-galactosidase (Homo sapiens) (UniProt P16278); test: Inhibition of human lymphocyte beta-galactosidase at 100 uM using 4-MU-glycopyranoside as substrate by spectrophotometric analysis
T4 sequence (whole entry): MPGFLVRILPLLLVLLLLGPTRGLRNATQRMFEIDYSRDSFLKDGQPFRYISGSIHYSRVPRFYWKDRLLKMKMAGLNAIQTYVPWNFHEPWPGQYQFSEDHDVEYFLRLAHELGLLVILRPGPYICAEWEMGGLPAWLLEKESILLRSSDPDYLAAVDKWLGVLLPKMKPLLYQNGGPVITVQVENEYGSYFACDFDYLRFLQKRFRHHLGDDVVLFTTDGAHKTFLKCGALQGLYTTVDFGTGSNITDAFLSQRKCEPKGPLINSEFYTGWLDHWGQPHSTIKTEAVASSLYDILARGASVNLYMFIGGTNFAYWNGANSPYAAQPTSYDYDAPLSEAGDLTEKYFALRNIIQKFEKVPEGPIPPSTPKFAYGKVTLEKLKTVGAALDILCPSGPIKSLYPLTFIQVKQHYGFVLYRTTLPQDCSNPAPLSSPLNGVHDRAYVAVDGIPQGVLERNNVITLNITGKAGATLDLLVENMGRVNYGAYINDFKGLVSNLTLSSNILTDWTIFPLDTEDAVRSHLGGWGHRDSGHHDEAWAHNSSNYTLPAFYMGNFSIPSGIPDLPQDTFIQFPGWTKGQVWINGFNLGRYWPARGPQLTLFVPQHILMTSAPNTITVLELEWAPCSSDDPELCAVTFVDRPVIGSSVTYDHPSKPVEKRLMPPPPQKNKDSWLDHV

[7] = target: T5, Lysosomal alpha-mannosidase (Homo sapiens) (UniProt O00754); test: Inhibition human recombinant acid alpha-mannosidase at 100 uM using p-nitrophenyl-glycopyranoside as substrate by spectrophotometric analysis
T5 sequence (whole entry): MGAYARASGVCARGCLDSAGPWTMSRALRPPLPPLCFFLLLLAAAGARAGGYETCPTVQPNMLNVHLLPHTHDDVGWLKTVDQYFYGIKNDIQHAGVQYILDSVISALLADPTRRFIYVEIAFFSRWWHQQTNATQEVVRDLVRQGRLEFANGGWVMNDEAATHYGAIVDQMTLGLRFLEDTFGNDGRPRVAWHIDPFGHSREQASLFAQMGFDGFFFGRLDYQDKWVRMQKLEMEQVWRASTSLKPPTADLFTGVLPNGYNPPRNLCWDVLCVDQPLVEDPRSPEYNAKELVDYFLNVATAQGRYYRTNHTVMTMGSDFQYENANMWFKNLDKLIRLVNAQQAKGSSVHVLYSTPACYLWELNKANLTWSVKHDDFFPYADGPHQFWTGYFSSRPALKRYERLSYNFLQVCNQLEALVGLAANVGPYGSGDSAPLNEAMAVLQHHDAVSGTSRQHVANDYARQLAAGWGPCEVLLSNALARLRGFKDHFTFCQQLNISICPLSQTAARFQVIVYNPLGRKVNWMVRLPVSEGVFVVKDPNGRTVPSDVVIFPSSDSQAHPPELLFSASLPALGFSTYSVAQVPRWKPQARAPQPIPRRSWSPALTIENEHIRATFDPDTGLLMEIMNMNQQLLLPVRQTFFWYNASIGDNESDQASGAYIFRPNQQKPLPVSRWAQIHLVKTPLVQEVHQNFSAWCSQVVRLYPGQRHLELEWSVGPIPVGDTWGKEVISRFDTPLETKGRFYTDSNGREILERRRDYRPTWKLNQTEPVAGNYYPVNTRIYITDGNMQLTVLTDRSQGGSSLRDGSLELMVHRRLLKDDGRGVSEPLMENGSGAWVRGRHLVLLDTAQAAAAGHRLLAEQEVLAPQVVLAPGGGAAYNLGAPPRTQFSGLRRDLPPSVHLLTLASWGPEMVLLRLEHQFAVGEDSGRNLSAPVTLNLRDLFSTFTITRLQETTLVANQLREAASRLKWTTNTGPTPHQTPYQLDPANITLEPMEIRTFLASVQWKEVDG

Lymphocyte = test: Cytotoxicity against human lymphocytes at 100 uM after 48 to 72 hrs by AlamarBlue assay; assay type: cell-based

With `COc1ccc(OC)c(/C=C/C(=O)NC[C@H]2NC[C@H](O)[C@@H](O)[C@H]2O)c1` the inhibition [1] was 99%, the inhibition [2] was “inactive” and the inhibition [3] was “inactive”. The inhibition [4] was “inactive”, the inhibition [5] was 57% and the inhibition [6] was “inactive”. For the same molecule, the inhibition [7] was “inactive” and the Activity (Lymphocyte) was “Non-Toxic”.
